In patent publication US8722849B2, “Polypeptides” (Novo Nordisk A/S, priority 2011, dated 2014):
Values after ≈ are worked out from the molar mass of the structure shown. Where two headings read alike, the source gives them in different places. Starred links: 1 amine or outer side, 2 acyl side, 3 side chain; linkers in the order of their positions; H or OH if unused. Positions of bridges follow the written chain, without caps; N, C: chain ends. Residues, ends and D or L forms follow the SMILES beside them. *: point of attachment. C20 diacid = O=C(O)CCCCCCCCCCCCCCCCCCC(=O)*; γGlu = O=C(O)[C@H](CCC(=O)[*:2])N[*:1]

Columns and labels:
[1] = molecular target: T1, human calcitonin receptor (Homo sapiens, UniProt P30988); experiment: Assay (II)a functional CRE-luciferase assay, human calcitonin receptor; type: cell-based; details: Table 7; human calcitonin (CTa) receptor
T1 construct: expressed in transfected cells; host or cells: BHK570
T1 sequence (P30988 25-474): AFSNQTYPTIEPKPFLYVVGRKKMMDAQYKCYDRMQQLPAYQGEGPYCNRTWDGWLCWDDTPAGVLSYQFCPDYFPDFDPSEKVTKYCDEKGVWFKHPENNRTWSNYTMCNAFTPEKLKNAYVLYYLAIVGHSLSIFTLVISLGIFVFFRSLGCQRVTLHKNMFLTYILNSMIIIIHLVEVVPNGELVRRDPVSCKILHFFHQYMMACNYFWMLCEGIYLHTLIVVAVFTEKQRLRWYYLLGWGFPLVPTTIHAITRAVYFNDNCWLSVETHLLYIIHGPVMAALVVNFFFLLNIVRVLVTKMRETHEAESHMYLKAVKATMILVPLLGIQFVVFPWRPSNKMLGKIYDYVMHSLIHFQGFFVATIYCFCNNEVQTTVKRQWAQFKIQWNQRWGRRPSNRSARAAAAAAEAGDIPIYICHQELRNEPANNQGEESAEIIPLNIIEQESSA

[2] = molecular target: T2, human amylin receptor (amylin 3(a) receptor: human calcitonin receptor + RAMP-3) (Homo sapiens, UniProt O60896+P30988); experiment: Assay (II)a functional CRE-luciferase assay, human amylin receptor; type: cell-based; details: Table 2; BHK amylin 3(a)-receptor/CRE-luc cells
T2 construct: expressed in transfected cells; host or cells: BHK570
T2 sequence (P30988 25-474): T1 sequence (P30988 25-474)
T2 sequence (O60896 24-148 partner): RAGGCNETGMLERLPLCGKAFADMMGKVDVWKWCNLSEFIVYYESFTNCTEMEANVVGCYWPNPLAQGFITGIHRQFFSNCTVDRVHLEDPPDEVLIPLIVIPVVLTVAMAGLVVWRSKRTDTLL

[3] = Assay (III) ThT fibrillation assay for physical stability; type: physicochemical; details: ThT fibrillation assay
In short: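 Freshly prepared formulations, pH-adjusted, with 1 μM ThT; four or eight replicates incubated at 37 °C under 960 rpm orbital shaking. Fluorescence (ex 444/em 485 nm) read every 20 min; […]. Peptide concentration measured by RP-HPLC before and after the run.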

[4] = Assay (IV) determination of solubility; type: physicochemical
In short: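 Eight 100 mM buffers (glycylglycine pH 3.0–5.0, bistrispropane pH 6.0–8.0) each received an equal volume of polypeptide dissolved in water at ~500 nmol/ml. Soluble polypeptide was measured by HPLC following 18 hours at room temperature and centrifugation.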

[5] = bistrispropane buffer, pH 6, pH 6.0, read-out: Solubility pH 6.0
[6] = bistrispropane buffer, pH 6.5, pH 6.5, read-out: Solubility pH 6.5
[7] = bistrispropane buffer, pH 7, pH 7.0, read-out: Solubility pH 7.0
[8] = bistrispropane buffer, pH 7.5, pH 7.5, read-out: Solubility pH 7.5
[9] = bistrispropane buffer, pH 8, pH 8.0, read-out: Solubility pH 8.0
[10] = glycylglycine buffer, pH 3, pH 3.0, read-out: Solubility pH 3.0
[11] = glycylglycine buffer, pH 4, pH 4.0, 18 hours at room temperature, Table 2, read-out: Solubility pH 4.0
[12] = glycylglycine buffer, pH 4, pH 4.0, read-out: Solubility pH 4.0
[13] = glycylglycine buffer, pH 5, pH 5.0, read-out: Solubility pH 5.0

CC[C@H](C)[C@H](NC(=O)[C@@H]1CCCN1C(=O)CNC(=O)[C@H](Cc1ccccc1)NC(=O)[C@H](CC(N)=O)NC(=O)[C@H](CC(N)=O)NC(=O)[C@H](CO)NC(=O)[C@H](CO)NC(=O)[C@H](Cc1c[nH]cn1)NC(=O)[C@H](Cc1c[nH]cn1)NC(=O)[C@H](CC(C)C)NC(=O)[C@H](Cc1ccccc1)NC(=O)[C@H](CCC(=O)O)NC(=O)[C@H](C)NC(=O)[C@H](CC(C)C)NC(=O)[C@H](CCCNC(=N)N)NC(=O)[C@H](CCC(N)=O)NC(=O)[C@@H](NC(=O)[C@H](C)NC(=O)[C@@H]1CSSC[C@H](NC(=O)[C@H](CO)NC(=O)CC[C@H](NC(=O)CCCCCCCCCCCCCCCCCCC(=O)O)C(=O)O)C(=O)N[C@@H](CC(N)=O)C(=O)N[C@@H]([C@@H](C)O)C(=O)N[C@@H](C)C(=O)N[C@@H]([C@@H](C)O)C(=O)N1)[C@@H](C)O)C(=O)N[C@@H](CC(C)C)C(=O)N1CCC[C@H]1C(=O)N1CCC[C@H]1C(=O)N[C@H](C(=O)N[C@@H](CC(N)=O)C(=O)N[C@H](C(=O)NCC(=O)N[C@@H](CO)C(=O)N[C@@H](Cc1c[nH]cn1)C(=O)N[C@H](C(=O)N[C@@H](Cc1ccc(O)cc1)C(N)=O)[C@@H](C)O)C(C)C)[C@@H](C)O [Example 107, N-alpha-[(S)-4-Carboxy-4-(19-carboxynonadecanoylamino)butyryl]-[Ser1,Glu14,His17,His35]-pramlintide] ({C20 diacid-γGlu}-SCNTATCATQRLAEFLHHSSNNFGPILPPTNVGSHTY-NH2; disulfide 2-7)
EC50 [1]: 171 pM | EC50 [2]: 225 pM | ThT pH 4.0 lag time (h) [3]: 19 h | solubility at 18 h [4, 5]: 49 µM (≈ 217 µg/mL) | solubility at 18 h [4, 6]: 4 µM (≈ 17.8 µg/mL) | solubility at 18 h [4, 7]: 27 µM (≈ 120 µg/mL) | solubility at 18 h [4, 8]: 174 µM (≈ 772 µg/mL) | solubility at 18 h [4, 9]: > 200 µM | solubility at 18 h [4, 10]: > 200 µM | solubility at 18 h [4, 11]: > 200 µM | solubility at 18 h [4, 12]: > 200 µM | solubility at 18 h [4, 13]: > 200 µM

CC(C)C[C@H](NC(=O)[C@H](CCCNC(=N)N)NC(=O)[C@H](CCC(N)=O)NC(=O)[C@@H](NC(=O)[C@H](C)NC(=O)[C@@H]1CSSC[C@H](NC(=O)[C@H](CCCCN)NC(=O)CC[C@H](NC(=O)CCCCCCCCCCCCCCCCCCC(=O)O)C(=O)O)C(=O)N[C@@H](CC(N)=O)C(=O)N[C@@H]([C@@H](C)O)C(=O)N[C@@H](C)C(=O)N[C@@H]([C@@H](C)O)C(=O)N1)[C@@H](C)O)C(=O)N[C@@H](C)C(=O)N[C@@H](CCC(=O)O)C(=O)N[C@@H](Cc1ccccc1)C(=O)N[C@@H](CC(C)C)C(=O)N[C@H](C(=O)N[C@@H](CCCNC(=N)N)C(=O)N[C@@H](CO)C(=O)N[C@@H](CO)C(=O)N[C@@H](CCC(N)=O)C(=O)N[C@@H](CC(N)=O)C(=O)N[C@@H](Cc1ccccc1)C(=O)NCC(=O)N[C@@H](C)C(=O)N1CCC[C@H]1C(=O)N[C@@H](CC(C)C)C(=O)N[C@@H](CO)C(=O)N[C@@H](CO)C(=O)N[C@H](C(=O)N[C@@H](CC(N)=O)C(=O)N[C@H](C(=O)NCC(=O)N[C@@H](CO)C(=O)N[C@@H](CC(N)=O)C(=O)N[C@H](C(=O)N1CCC[C@H]1C(N)=O)[C@@H](C)O)C(C)C)[C@@H](C)O)C(C)C [Example 166, N-alpha-[(S)-4-Carboxy-4-(19-carboxynonadecanoylamino)butyryl]-[Glu14,Arg18,Gln21,Ala25,Pro26,Ser28,Ser29,Pro37]-pramlintide] ({C20 diacid-γGlu}-KCNTATCATQRLAEFLVRSSQNFGAPLSSTNVGSNTP-NH2; disulfide 2-7 (inferred); C-terminus assumed)
EC50 [1]: 34 pM | EC50 [2]: 39 pM | ThT pH 4.0 lag time (h) [3]: 1.3 h | solubility at 18 h [4, 5]: > 200 µM | solubility at 18 h [4, 6]: > 200 µM | solubility at 18 h ([4]; bistrispropane buffer, pH 7, pH 7.0, 18 hours at room temperature, Table 3, read-out: Solubility pH 7.0): > 200 µM | solubility at 18 h [4, 7]: > 200 µM | solubility at 18 h [4, 8]: > 200 µM | solubility at 18 h [4, 9]: > 200 µM | solubility at 18 h [4, 10]: > 200 µM | solubility at 18 h [4, 11]: > 200 µM | solubility at 18 h [4, 12]: > 200 µM | solubility at 18 h [4, 13]: > 200 µM
